Data: the supplement of paper PMC13380429

Experiments:
[1] = system: A549-ACE2 infected with SARS-CoV-2; assay: cell count relative to DMSO; higher = less toxic; settings: 24 h
[2] = system: A549-ACE2 infected with SARS-CoV-2; assay: morphology score (similarity to uninfected cells); higher = more like uninfected cells; settings: 24 h
[3] = system: U2OS; assay: relative viability EC50 (midpoint between 100% and the lowest measured viability); higher = less toxic; settings: 72 h
[4] = system: Calu-3; assay: as above; settings: 72 h
[5] = system: A549-ACE2 infected with SARS-CoV-2; assay: SARS-CoV-2 infection rate relative to DMSO; higher = more infection; settings: 24 h
[6] = system: HepG2; assay: cell viability relative to DMSO; higher = less toxic; settings: 72 h
[7] = system: U2OS; assay: as above; settings: 72 h
[8] = system: Vero E6; assay: as above; settings: 72 h
[9] = system: Calu-3; assay: as above; settings: 72 h
[10] = system: Caco-2; assay: as above; settings: 72 h
[11] = system: HepG2; assay: drug sensitivity score (DSS) for viability; higher = more toxic; extreme values may be limits of the assay; settings: 72 h
[12] = system: U2OS; assay: as above; settings: 72 h
[13] = system: Vero E6; assay: as above; settings: 72 h
[14] = system: Calu-3; assay: as above; settings: 72 h
[15] = system: Caco-2; assay: as above; settings: 72 h
[16] = system: A549-ACE2; assay: drug-induced phospholipidosis relative to tamoxifen; higher = more phospholipidosis
[17] = system: HepG2; assay: relative viability EC50 (midpoint between 100% and the lowest measured viability); higher = less toxic; settings: 72 h
[18] = system: Vero E6; assay: as above; settings: 72 h
[19] = system: Caco-2; assay: as above; settings: 72 h

C=C1CC[C@@H]2[C@](C)(CO)[C@H](O)CC[C@@]2(C)[C@@H]1C/C=C1/C(=O)OC[C@H]1O [andrographolide]
Settings	SARS-CoV-2 infection rate, [5] [%]	cell count, [1] [%]	cell viability, [6] [%]	cell viability, [7] [%]	cell viability, [8] [%]	cell viability, [9] [%]	cell viability, [10] [%]	morphology score, [2]
1 nM	–	–	102	103	100	90.5	99.1	–
10 nM	–	–	99.2	95.7	104	94.3	104	–
0.1 µM	103	101	–	–	–	–	–	-0.02
100 nM	–	–	109	102	98	105	101	–
0.3 µM	110	101	–	–	–	–	–	-0.22
1 µM	111	96	–	–	–	–	–	-0.15
1000 nM	–	–	102	96.2	112	106	94.3	–
3 µM	102	102	–	–	–	–	–	-0.17
10000 nM	–	–	66.5	22.9	73.8	112	66	–

Settings	drug sensitivity score	relative viability EC50 [µM]
[3]	–	2.78
[4]	–	> 10
[11]	1.4	–
[12]	4.8	–
[13]	0.7	–
[14]	0	–
[15]	2.5	–

drug-induced phospholipidosis [%], [16]
Settings	0.3 µM	0.833333 µM	3.33333 µM	6.66667 µM	10 µM	30 µM
24 h	4.15	-1.47	2.19	13.3	16	25
48 h	3.38	2.04	3.48	15.8	19.9	–
72 h	0.729	-0.638	-0.912	5.37	8.38	–

C[C@]12CCC(=O)C[C@@H]1CC[C@@H]1[C@@H]2CC[C@]2(C)C=CC[C@@H]12 [androstenone]
Settings	drug sensitivity score	relative viability EC50 [µM]
[3]	–	> 10
[4]	–	> 10
[11]	0	–
[12]	0	–
[13]	0	–
[14]	0.1	–
[15]	0	–
[17]	–	> 10
[18]	–	> 10
[19]	–	> 10

cell viability [%]
Settings	[6]	[7]	[8]	[9]	[10]
1 nM	100	94.5	96.8	90.7	86.6
10 nM	99.4	99.3	97.1	91.1	104
100 nM	92.4	92.6	97.4	99.8	93.9
1000 nM	89.8	99	93.4	105	97.2
10000 nM	100	101	102	80.2	102

Cc1cc(=O)n(-c2ccccc2)[nH]1 [N-demethylantipyrine]
Settings	drug sensitivity score	relative viability EC50 [µM]
[3]	–	> 10
[4]	–	> 10
[11]	0	–
[12]	0	–
[13]	0	–
[14]	0	–
[15]	0	–
[17]	–	> 10
[18]	–	> 10
[19]	–	> 10

cell viability [%]
Settings	[6]	[7]	[8]	[9]	[10]
1 nM	94.1	101	104	102	99.3
10 nM	106	99.7	101	107	97.2
100 nM	95.3	98.7	94.2	98.5	102
1000 nM	107	102	95.2	97	84.8
10000 nM	93.8	98.5	102	106	99.8

CC(C)NCC(O)COc1ccc(COCCOC(C)C)cc1 (stereo not given) [bisoprolol]
Settings	drug sensitivity score	relative viability EC50 [µM]
[3]	–	> 10
[4]	–	> 10
[11]	0	–
[12]	0	–
[13]	0	–
[14]	0	–
[15]	0	–
[17]	–	> 10
[18]	–	> 10
[19]	–	> 10

cell viability [%]
Settings	[6]	[7]	[8]	[9]	[10]
1 nM	104	93.6	92	95.5	91.3
10 nM	98.9	94	98.3	103	95.8
100 nM	91.2	101	93.3	108	103
1000 nM	103	95	104	97.8	100
10000 nM	90.6	103	107	108	99.2

Cc1cc(C(=O)CN2CCCC2)c(C)n1-c1ccc(F)cc1 [IU1]
Settings	drug sensitivity score	relative viability EC50 [µM]
[3]	–	> 10
[4]	–	> 10
[11]	0	–
[12]	0	–
[13]	0	–
[14]	0	–
[15]	0	–
[17]	–	> 10
[18]	–	> 10
[19]	–	> 10

cell viability [%]
Settings	[6]	[7]	[8]	[9]	[10]
1 nM	95.7	92.3	99.2	112	103
10 nM	100	98.8	97.8	99.9	105
100 nM	101	95.5	98.4	102	101
1000 nM	102	96.2	94.6	109	108
10000 nM	103	109	105	104	99.1

CCn1cc(C(=O)O)c(=O)c2cc(F)c(N3CCN(C)CC3)cc21 [pefloxacin]
Settings	drug sensitivity score	relative viability EC50 [µM]
[3]	–	> 10
[4]	–	> 10
[11]	0	–
[12]	0	–
[13]	0	–
[14]	0	–
[15]	0	–
[17]	–	> 10
[18]	–	> 10
[19]	–	> 10

cell viability [%]
Settings	[6]	[7]	[8]	[9]	[10]
1 nM	88.6	104	96.8	100	94.5
10 nM	100	94.8	101	97.8	80.2
100 nM	106	98.4	94.2	97.2	104
1000 nM	99.3	96	95.3	83.3	89.5
10000 nM	94.6	96	90.4	99	94.1
